Test results: ChEMBL document CHEMBL3886524, “Heteroaryl pyridone and aza-pyridone compounds with electrophilic functionality” (2016)

target: Tyrosine-protein kinase BTK (Homo sapiens, UniProt Q06187); experiment: Biochemical Btk Assay: A generalized procedure for a standard biochemical Btk, Kinase Assay that can be used to test Formula I compounds is as follows. A master mix minus Btk enzyme is prepared containing 1x Cell Signaling kinase buffer (25 mM Tris-HCl, pH 7.5, 5 mM beta-glycerophosphate, 2 mM dithiothreitol, 0.1 mM Na3VO4, 10 mM MgCl2), 0.5 uM Promega PTK Biotinylated peptide substrate 2, and 0.01% BSA. A master mix plus Btk enzyme is prepared containing 1x Cell Signaling kinase buffer, 0.5 uM PTK Biotinylated peptide substrate 2, 0.01% BSA, and 100 ng/well (0.06 mU/well) Btk enzyme. Btk enzyme is prepared as follows: full length human wildtype Btk (accession number NM-000061) with a C-terminal V5 and 6xHis tag was subcloned into pFastBac vector (Invitrogen/Life Technologies) for making baculovirus carrying this epitope-tagged Btk.
Sequence (Q06187 whole entry): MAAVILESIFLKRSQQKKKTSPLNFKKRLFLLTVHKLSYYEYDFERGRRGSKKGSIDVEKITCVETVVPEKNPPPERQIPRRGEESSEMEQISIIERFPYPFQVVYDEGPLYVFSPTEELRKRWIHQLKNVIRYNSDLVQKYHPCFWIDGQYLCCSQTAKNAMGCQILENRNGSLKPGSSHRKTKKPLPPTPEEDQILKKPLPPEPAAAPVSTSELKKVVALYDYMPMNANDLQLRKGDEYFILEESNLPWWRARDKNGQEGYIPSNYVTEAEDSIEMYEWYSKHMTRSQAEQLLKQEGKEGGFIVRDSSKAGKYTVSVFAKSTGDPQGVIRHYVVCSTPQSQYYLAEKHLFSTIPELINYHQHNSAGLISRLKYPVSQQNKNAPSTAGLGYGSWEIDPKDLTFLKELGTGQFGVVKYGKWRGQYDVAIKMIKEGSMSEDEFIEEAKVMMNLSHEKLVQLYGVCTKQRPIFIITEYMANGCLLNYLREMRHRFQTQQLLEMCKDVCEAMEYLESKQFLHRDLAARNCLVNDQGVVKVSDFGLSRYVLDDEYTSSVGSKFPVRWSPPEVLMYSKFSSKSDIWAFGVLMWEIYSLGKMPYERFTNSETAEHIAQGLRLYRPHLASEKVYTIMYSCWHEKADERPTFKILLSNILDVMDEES

In order of rising Ki:
1. C=CC(=O)NCCN(C)c1cccc(Nc2cc(-c3ccnc(N4CCn5c(cc6c5CC(C)(C)C6)C4=O)c3CO)cn(C)c2=O)n1  0.683 nM
2. C=CC(=O)N[C@H]1CCCN(c2cccc(Nc3cc(-c4ccnc(N5CCn6c(cc7c6CC(C)(C)C7)C5=O)c4CO)cn(C)c3=O)n2)C1  0.888 nM
3. C=C(C#N)C(=O)NCCOc1cccc(Nc2cc(-c3ccnc(N4CCn5c(cc6c5CC(C)(C)C6)C4=O)c3CO)cn(C)c2=O)n1  1.7 nM
4. CC#CC(=O)NCCOc1cccc(Nc2cc(-c3ccnc(N4CCn5c(cc6c5CC(C)(C)C6)C4=O)c3CO)cn(C)c2=O)n1  2.37 nM
5. C=CC(=O)NCCNc1cccc(Nc2cc(-c3ccnc(N4CCn5c(cc6c5CC(C)(C)C6)C4=O)c3CO)cn(C)c2=O)n1  4.33 nM
